According to the supplement of paper PMC4862054:

Assays:
Conditions in all cases: incubation time: 72 h
MDA-MB-231 = experiment: drug sensitivity score (DSS), CellTiter-Glo (DSS (AUC-based score)); higher = stronger drug effect (viability inhibition or cytotoxicity); extreme values may be limits of the assay
Outline: (§1)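 In 384-well plates, compound was laid out at 5 concentrations in 10-fold steps over a 10,000-fold range specific to each compound, and breast cancer cell lines were seeded on top in 20 µl suspension for a 72 h incubation. CellTox Green fluorescence and then CellTiter-Glo luminescence were read, and each plate was normalised to 0.1 % DMSO and a positive kill control. The drug sensitivity score was calculated from the area under the fitted dose-response curve.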

HDQ-P1 [1] = experiment: as above
Outline: as §1

CAL-51 [2] = experiment: as above
Outline: as §1

SK-BR-3 [3] = experiment: as above
Outline: as §1

CAL-148 = experiment: as above
Outline: as §1

MDA-MB-436 [4] = experiment: as above
Outline: as §1

BT-474 [5] = experiment: as above
Outline: as §1

HCC1599 [6] = experiment: as above
Outline: as §1

CAL-85-1 [7] = experiment: as above
Outline: as §1

BT-549 = experiment: as above
Outline: as §1

HCC1937 [8] = experiment: as above
Outline: as §1

MDA-MB-453 = experiment: as above
Outline: as §1

CAL-120 = experiment: as above
Outline: as §1

DU-4475 = experiment: as above
Outline: as §1

MFM-223 = experiment: as above
Outline: as §1

Hs578T = experiment: as above
Outline: as §1

HDQ-P1 [9] = experiment: normalised viability (% of control), CellTiter-Blue; higher = more viable cells (about 100 = DMSO control)
Outline: (§2)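 Compound dissolved in 5 µl medium was pre-loaded into 384-well plates, and breast cancer cell lines in 20 µl suspension were seeded on top and incubated 72 h. After adding 2.5 µl CellTiter-Blue reagent for 2 h at 37 °C, fluorescence was read at 560/590 nm. Plates were normalised to vehicle (100) and a positive kill control (0), with Z'-factor quality control. Each value is normalised viability at a single listed concentration from the series.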

CAL-51 [10] = experiment: as above
Outline: as §2

SK-BR-3 [11] = experiment: as above
Outline: as §2

MDA-MB-436 [12] = experiment: as above
Outline: as §2

BT-474 [13] = experiment: as above
Outline: as §2

HCC1143 = experiment: as above
Outline: as §2

HCC1599 [14] = experiment: as above
Outline: as §2

CAL-85-1 [15] = experiment: as above
Outline: as §2

HCC1937 [16] = experiment: as above
Outline: as §2

CC1(C)CCC(c2ccc(Cl)cc2)=C(CN2CCN(c3ccc(C(=O)NS(=O)(=O)c4ccc(N[C@H](CCN5CCOCC5)CSc5ccccc5)c(S(=O)(=O)C(F)(F)F)c4)cc3)CC2)C1 [Navitoclax]
Conditions	drug sensitivity score
BT-474 [5]	9.19
BT-549	0.252
CAL-51 [2]	2.18
CAL-85-1 [7]	0.831
CAL-120	7.04
CAL-148	2
DU-4475	1.89
HCC1599 [6]	0
HCC1937 [8]	3.57
HDQ-P1 [1]	4.94
Hs578T	0
MDA-MB-231	11.1
MDA-MB-436 [4]	0
MDA-MB-453	3.71
MFM-223	2.94
SK-BR-3 [3]	0

normalised viability [%]
Conditions	BT-474 [13]	CAL-51 [10]	CAL-85-1 [15]	HCC1143	HCC1599 [14]	HCC1937 [16]	HDQ-P1 [9]	MDA-MB-436 [12]	SK-BR-3 [11]
3 nM	–	112	84.1	–	–	–	81.4	–	–
10 nM	96.3	–	–	71.8	94.5	87.6	–	76.2	83.8
30 nM	–	104	81.1	–	–	–	79.7	–	–
100 nM	–	101	85.3	–	–	–	79.3	–	–
1000 nM	95.2	–	–	78.1	62.2	85.8	–	98.7	86
10000 nM	63	–	–	65.3	74.7	85	–	71.7	73.2

CCN(CC)CCCC(C)Nc1ccnc2cc(Cl)ccc12 (configuration not stated) [Chloroquine]
Conditions	drug sensitivity score
BT-474 [5]	9.59
BT-549	9.55
CAL-51 [2]	13.3
CAL-85-1 [7]	11
CAL-120	11.1
CAL-148	10.1
DU-4475	8.35
HCC1599 [6]	9.72
HCC1937 [8]	9.1
HDQ-P1 [1]	7.81
Hs578T	5.84
MDA-MB-231	9.09
MDA-MB-436 [4]	9.03
MDA-MB-453	15.7
MFM-223	9.76
SK-BR-3 [3]	14.7

normalised viability [%]
Conditions	BT-474 [13]	CAL-51 [10]	CAL-85-1 [15]	HCC1143	HCC1599 [14]	HCC1937 [16]	HDQ-P1 [9]	MDA-MB-436 [12]	SK-BR-3 [11]
0.297 nM	–	94	95.5	–	–	–	107	–	–
0.99 nM	109	–	–	97.8	100	100	–	133	103
2.97 nM	–	92.9	90	–	–	–	113	–	–
9.9 nM	–	91.7	97	–	–	–	116	–	–
99 nM	108	–	–	89.2	85.6	111	–	104	93.4
990 nM	111	–	–	93.4	119	100	–	141	101

CO[C@@H]1[C@H](N(C)C(=O)c2ccccc2)C[C@H]2O[C@]1(C)n1c3ccccc3c3c4c(c5c6ccccc6n2c5c31)C(=O)NC4 [Midostaurin]
Conditions	drug sensitivity score
BT-474 [5]	10.5
BT-549	13.8
CAL-51 [2]	15.9
CAL-85-1 [7]	2.25
CAL-120	9.74
CAL-148	0
DU-4475	9.68
HCC1599 [6]	0
HCC1937 [8]	7.38
HDQ-P1 [1]	6.88
Hs578T	15.7
MDA-MB-231	10.8
MDA-MB-436 [4]	3.96
MDA-MB-453	0
MFM-223	3.44
SK-BR-3 [3]	7.66

normalised viability [%]
Conditions	BT-474 [13]	CAL-51 [10]	CAL-85-1 [15]	HCC1143	HCC1599 [14]	HCC1937 [16]	HDQ-P1 [9]	MDA-MB-436 [12]	SK-BR-3 [11]
3 nM	–	97.5	112	–	–	–	84.7	–	–
10 nM	105	–	–	145	106	111	–	94.2	94
30 nM	–	87.9	111	–	–	–	95.7	–	–
100 nM	–	82.4	103	–	–	–	96.8	–	–
1000 nM	91.3	–	–	75	78.8	56.5	–	62.7	77.4
10000 nM	84.3	–	–	61.3	72.6	44.9	–	57.2	39.5

CO[C@@]12[C@H](COC(N)=O)C3=C(C(=O)C(C)=C(N)C3=O)N1C[C@@H]1N[C@@H]12 [Mitomycin C]
Conditions	drug sensitivity score
BT-474 [5]	0
BT-549	8.27
CAL-51 [2]	10.5
CAL-85-1 [7]	2.91
CAL-120	0.335
CAL-148	0
DU-4475	0
HCC1599 [6]	0
HCC1937 [8]	0
HDQ-P1 [1]	0.633
Hs578T	0
MDA-MB-231	0
MDA-MB-436 [4]	3.39
MDA-MB-453	0
MFM-223	0
SK-BR-3 [3]	1.42

normalised viability [%]
Conditions	BT-474 [13]	CAL-51 [10]	CAL-85-1 [15]	HCC1143	HCC1599 [14]	HCC1937 [16]	HDQ-P1 [9]	MDA-MB-436 [12]	SK-BR-3 [11]
3 nM	–	119	104	–	–	–	105	–	–
10 nM	112	–	–	78.3	110	88.4	–	100	99.2
30 nM	–	118	98.4	–	–	–	96.3	–	–
100 nM	–	107	105	–	–	–	104	–	–
1000 nM	95.5	–	–	72.4	73.2	45.4	–	76.2	61.5
10000 nM	53.7	–	–	20.4	14.6	21.6	–	17.6	10.4
